ChEMBL document CHEMBL1201862, “PubChem BioAssay data set” (2004)
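Grown in 96-well plates, cells were treated for 48 hours with each compound at five concentrations. Insufficient inhibition: endpoint recorded as highest concentration tested. Abbreviation: GI50, concentration required for 50% inhibition of growth.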 Active and inactive are the calls of the source. No stated cut-off is given here; in the data, active = GI50 up to about 1.1 µM and inactive = higher.

Assays:
Assay in all cases: NCI tumour cell line growth inhibition, 48 h
Malme-3M = tested on: Malme-3M
HCT-116 = tested on: HCT-116
LOX IMVI = tested on: LOX IMVI
UACC-62 = tested on: UACC-62
Hs-578T = tested on: Hs-578T
M14 = tested on: M14
NCI-H522 = tested on: NCI-H522
OVCAR-8 = tested on: OVCAR-8
DU-145 = tested on: DU-145
CAKI-1 = tested on: CAKI-1
SNB-19 = tested on: SNB-19
T47D = tested on: T47D
IGROV-1 = tested on: IGROV-1
PC-3 = tested on: PC-3
786-0 = tested on: 786-0
SF-295 = tested on: SF-295
RXF 393 = tested on: RXF 393
OVCAR-3 = tested on: OVCAR-3
MDA-MB-435 = tested on: MDA-MB-435
HCT-15 = tested on: HCT-15

SMILES	GI50 (Malme-3M)	GI50 (HCT-116)	GI50 (LOX IMVI)	GI50 (UACC-62)	GI50 (Hs-578T)	GI50 (M14)	GI50 (NCI-H522)	GI50 (OVCAR-8)	GI50 (DU-145)	GI50 (CAKI-1)	GI50 (SNB-19)	GI50 (T47D)	GI50 (IGROV-1)	GI50 (PC-3)	GI50 (786-0)	GI50 (SF-295)	GI50 (RXF 393)	GI50 (OVCAR-3)	GI50 (MDA-MB-435)	GI50 (HCT-15) [µM]
[O-][Cl+3]([O-])([O-])[O-].[O-][Cl+3]([O-])([O-])[O-].c1ccn2c(N3CCOCC3)[n+]3c4ccccc4[n+]4c(N5CCOCC5)n5ccccc5c4c3c2c1	66.2 µM (inactive)	> 100 µM (inactive)	> 100 µM (inactive)	> 100 µM (inactive)	33.7 µM (inactive)	> 100 µM (inactive)	> 100 µM (inactive)	41.2 µM (inactive)	> 100 µM (inactive)	> 100 µM (inactive)	63.2 µM (inactive)	> 100 µM (inactive)	66.2 µM (inactive)	> 100 µM (inactive)	> 100 µM (inactive)	> 100 µM (inactive)	> 100 µM (inactive)	> 100 µM (inactive)	> 100 µM (inactive)	> 100
C=C(CCOC)CCC1CCCCC(CN(C)C)C1=O (stereo not given)	> 100 µM (inactive)	> 100 µM (inactive)	> 100 µM (inactive)	> 100 µM (inactive)	> 100 µM (inactive)	> 100 µM (inactive)	> 100 µM (inactive)	> 100 µM (inactive)	> 100 µM (inactive)	> 100 µM (inactive)	> 100 µM (inactive)	> 100 µM (inactive)	> 100 µM (inactive)	> 100 µM (inactive)	> 100 µM (inactive)	> 100 µM (inactive)	> 100 µM (inactive)	> 100 µM (inactive)	> 100 µM (inactive)	> 100
N/C(=N\O)N/N=C/c1cc(Br)cc(Br)c1O	2.96 µM (inactive)	4.24 µM (inactive)	2.35 µM (inactive)	1.46 µM (inactive)	26.9 µM (inactive)	2.43 µM (inactive)	16.2 µM (inactive)	2.37 µM (inactive)	3.19 µM (inactive)	0.461 µM (active)	7.11 µM (inactive)	1.75 µM (inactive)	0.507 µM (active)	5.74 µM (inactive)	1.91 µM (inactive)	4.98 µM (inactive)	4.32 µM (inactive)	2.37 µM (inactive)	9.48 µM (inactive)	0.67
O=C(O)c1cc2ccccc2c2c1C(=O)c1ccccc1-2	83.8 µM (inactive)	> 100 µM (inactive)	> 100 µM (inactive)	45.9 µM (inactive)	> 100 µM (inactive)	46.7 µM (inactive)	83.9 µM (inactive)	> 100 µM (inactive)	> 100 µM (inactive)	> 100 µM (inactive)	57 µM (inactive)	> 100 µM (inactive)	58.7 µM (inactive)	> 100 µM (inactive)	> 100 µM (inactive)	56 µM (inactive)	> 100 µM (inactive)	50 µM (inactive)	> 100 µM (inactive)	92
CCOC(=O)Cc1nc2c(O)ncnc2n1C1OC(COC(C)=O)C(OC(C)=O)C1OC(C)=O (stereo not given)	> 100 µM (inactive)	> 100 µM (inactive)	> 100 µM (inactive)	> 100 µM (inactive)	> 100 µM (inactive)	> 100 µM (inactive)	> 100 µM (inactive)	> 100 µM (inactive)	> 100 µM (inactive)	> 100 µM (inactive)	> 100 µM (inactive)	> 100 µM (inactive)	> 100 µM (inactive)	> 100 µM (inactive)	> 100 µM (inactive)	> 100 µM (inactive)	> 100 µM (inactive)	> 100 µM (inactive)	> 100 µM (inactive)	> 100
Cn1c(-c2cccs2)cc(-c2cccs2)c1-c1cccs1	> 100 µM (inactive)	34.6 µM (inactive)	35.8 µM (inactive)	11.9 µM (inactive)	44.5 µM (inactive)	> 79.8 µM (inactive)	21.3 µM (inactive)	> 100 µM (inactive)	> 100 µM (inactive)	> 100 µM (inactive)	> 100 µM (inactive)	2.78 µM (inactive)	51.8 µM (inactive)	> 100 µM (inactive)	> 100 µM (inactive)	> 81.3 µM (inactive)	54.2 µM (inactive)	43.8 µM (inactive)	53.2 µM (inactive)	21.8
CCCC(O)c1cn(C(NC(=O)c2ccccc2)P(=O)(OCC)OCC)nn1 (stereo not given)	> 100 µM (inactive)	> 100 µM (inactive)	> 100 µM (inactive)	39.4 µM (inactive)	> 100 µM (inactive)	> 100 µM (inactive)	> 100 µM (inactive)	> 100 µM (inactive)	> 100 µM (inactive)	> 100 µM (inactive)	> 100 µM (inactive)	> 100 µM (inactive)	> 100 µM (inactive)	> 100 µM (inactive)	> 100 µM (inactive)	> 100 µM (inactive)	> 100 µM (inactive)	> 100 µM (inactive)	> 100 µM (inactive)	> 100
